Structures can show the parent of a compound that is named as a salt.

One test deals with T1, serotonin 1A receptor (Rattus norvegicus, UniProt P19327).
T1 construct: To the receptor fraction of the hippocampus were added a test compound and 0.5 nM of [^3H]; 8-hydroxy-dipropylaminotetralin; from tissue; host or cells: rat hippocampus membrane fraction
T1 sequence (P19327 1-422): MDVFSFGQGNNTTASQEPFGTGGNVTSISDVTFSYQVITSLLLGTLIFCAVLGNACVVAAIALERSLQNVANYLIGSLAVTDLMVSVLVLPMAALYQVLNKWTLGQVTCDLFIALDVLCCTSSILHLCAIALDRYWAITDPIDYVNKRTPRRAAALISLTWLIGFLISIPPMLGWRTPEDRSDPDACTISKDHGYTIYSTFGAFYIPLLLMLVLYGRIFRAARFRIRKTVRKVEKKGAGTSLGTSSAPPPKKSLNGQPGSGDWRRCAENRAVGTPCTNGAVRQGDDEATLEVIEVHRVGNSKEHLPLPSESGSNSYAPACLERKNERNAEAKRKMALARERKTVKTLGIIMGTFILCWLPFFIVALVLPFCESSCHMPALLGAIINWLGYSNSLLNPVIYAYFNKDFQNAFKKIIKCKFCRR
The experiment in a line: Binding test on [3H] 8-hydroxy-dipropylaminotetralin, hippocampus receptor fraction. The arrangement: species or system SD rats. Conditions: rat hippocampus receptor fraction, 0.5 nM [3H] 8-OH-DPAT, room temperature 30 min; read-out: 5HT1.

The next test addresses T2, serotonin 2 receptor (Rattus norvegicus, UniProt P14842).
T2 construct: To the receptor fraction of the cerebral cortex were added a test compound and 0.3 nM of [^3H] ketanserin; from tissue; host or cells: rat cerebral cortex membrane fraction
The experiment in a line: Binding test on [3H] ketanserin, cerebral cortex receptor fraction. The arrangement: species or system SD rats. Conditions: 0.3 nM [3H] ketanserin, 37° C. 15 min, read-out: 5HT2.

T2 sequence (P14842 whole entry): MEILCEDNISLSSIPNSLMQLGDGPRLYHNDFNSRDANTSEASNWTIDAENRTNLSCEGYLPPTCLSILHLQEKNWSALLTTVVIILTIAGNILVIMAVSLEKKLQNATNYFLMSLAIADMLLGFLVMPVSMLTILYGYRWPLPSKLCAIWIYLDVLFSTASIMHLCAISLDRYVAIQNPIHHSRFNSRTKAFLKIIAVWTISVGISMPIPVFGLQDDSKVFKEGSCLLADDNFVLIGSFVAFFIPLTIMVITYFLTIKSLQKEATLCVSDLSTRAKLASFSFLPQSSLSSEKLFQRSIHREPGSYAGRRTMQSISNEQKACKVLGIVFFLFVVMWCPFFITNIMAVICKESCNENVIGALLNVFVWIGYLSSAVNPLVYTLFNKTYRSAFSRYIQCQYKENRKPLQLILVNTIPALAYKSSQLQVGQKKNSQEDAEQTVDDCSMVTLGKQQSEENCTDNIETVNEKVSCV

For the compound `CCN1CCN(c2nc(-c3ccc(OCC(C)O)cc3)cc3sccc23)CC1` (centres unmarked) [Example 287, 4-(4-ethylpiperazin-1-yl)-6-[4-(2-hydroxypropoxy)phenyl]thieno[3,2-c]pyridine], the Ki at serotonin 1A receptor was 0.0279 µM; on serotonin 2 receptor it was 0.00087 µM.

`CCN1CCN(c2nc(-c3ccc(S(=O)(=O)NCCO)cc3)cc3ccccc23)CC1` [Example 347, 1-(4-ethylpiperazin-1-yl)-3-{4-[N-(2-hydroxyethyl)sulfamoyl]phenyl}isoquinoline dihydrochloride]: the Ki on serotonin 1A receptor is 0.008 µM; on serotonin 2 receptor, 0.0242 µM.

For the compound `CCCNC(=O)Cc1ccc(-c2cc3ccccc3c(N3CCN(CC)CC3)n2)cc1` [Example 88, 3-(4-Propylaminocarbonylmethylphenyl)-1-(4-ethylpiperazin-1-yl)isoquinoline Hydrochloride], the Ki at serotonin 1A receptor worked out at 0.0094 µM; on serotonin 2 receptor, 0.0117 µM.

Turning to `CCN1CCN(c2nc(-c3ccc(OCC(O)COC)cc3)cc3ccccc23)CC1` (centres unmarked) [Example 343, 1-(4-ethylpiperazin-1-yl)-3-[4-(2-hydroxy-3-methoxypropoxy)phenyl]isoquinoline dihydrochloride], the Ki turned out to be 0.0357 µM at serotonin 1A receptor and 0.0057 µM on serotonin 2 receptor.

Turning to `CCN1CCN(c2nc(-c3ccc(CCCO)nc3)cc3ccccc23)CC1` [Example 135, 1-(1-Ethylpiperazin-4-yl)-3-[2-(3-Hydroxypropyl)Pyridin-5-yl]Isoquinoline], the Ki on serotonin 1A receptor came out at 0.0034 µM; at serotonin 2 receptor it was 0.0189 µM.

`CCN1CCN(c2nc(-c3ccc([C@@H]4C[C@H](O)CCO4)cc3)cc3ccccc23)CC1` (relative stereo) [Example 401, 1-(4-Ethylpiperazin-1-yl)-3-[4-(cis-4-Hydroxytetrahydropyran-2-yl)Phenyl]Isoquinoline Dihydrochloride]: the Ki was determined as 0.0313 µM at serotonin 1A receptor and 0.0034 µM at serotonin 2 receptor.

For `CCN1CCN(c2nc(-c3ccc(S(=O)(=O)NCCOC)cc3)cc3ccccc23)CC1` [Example 354, 1-(4-ethylpiperazin-1-yl)-3-{4-[N-(2-methoxyethyl)sulfamoyl]phenyl}isoquinoline dihydrochloride], the results for the Ki on serotonin 1A receptor and on serotonin 2 receptor were 0.003 µM and 0.0013 µM, respectively.

`CCN1CCN(c2nc(-c3ccc(OCCO)c(C)c3)cc3ccccc23)CC1` [Example 40, 3-[3-methyl-4-(2-hydroxyethoxy)phenyl]-1-(4-ethylpiperazin-1-yl)isoquinoline hydrochloride]: the Ki on serotonin 1A receptor turned out to be 0.0267 µM; on serotonin 2 receptor, 0.0031 µM.

As to `CCN1CCN(c2nc(-c3ccc(OC)cc3)nc3ccccc23)CC1` [Example 427, 4-(4-ethylpiperazin-1-yl)-2-(4-methoxyphenyl)quinazoline Dihydrochloride], the Ki at serotonin 1A receptor was determined as 0.0809 µM; on serotonin 2 receptor, 0.3 µM.

For the compound `CCN1CCN(c2nc(-c3ccc(OCCO)c(F)c3)cc3ccccc23)CC1` [Example 369, 1-(4-ethylpiperazin-1-yl)-3-[3-fluoro-4-(2-hydroxyethoxy)phenyl]isoquinoline dihydrochloride], the Ki at serotonin 1A receptor stood at 0.0282 µM; on serotonin 2 receptor, 0.0025 µM.

`CCN1CCN(c2nc(-c3ccc(CCO)c(F)c3)cc3ccccc23)CC1` [Example 385, 1-(4-Ethylpiperazin-1-yl)-3-[3-Fluoro-4-(2-Hydroxyethyl)Phenyl]Isoquinoline Dihydrochloride]: the Ki on serotonin 1A receptor came to 0.0148 µM; on serotonin 2 receptor, 0.0216 µM.

As to `CCN1CCN(c2nc(-c3ccc(CCCO)cc3)cc3sccc23)CC1` [Example 465, 4-(4-ethylpiperazin-1-yl)-6-[4-(3-hydroxypropy)phenyl]thieno[3,2-c]pyridine dihydrochloride], the Ki at serotonin 1A receptor stood at 0.00628 µM; at serotonin 2 receptor it was 0.00711 µM.

Regarding `CCN1CCN(c2nc(-c3ccc(C(O)C4CCCCC4)cc3)cc3ccccc23)CC1` (centres unmarked) [Example 409, 1-(4-ethylpiperazin-1-yl)-3-[4-(cyclohexylhydroxymethyl)phenyl]isoquinoline], the Ki was found to be 0.0164 µM on serotonin 1A receptor and 0.0097 µM on serotonin 2 receptor.

As to `CCN1CCN(c2nc(/C=C/c3ccc(N4CCOCC4)nc3)cc3ccccc23)CC1` [Example 200, 3-[(E)-2-[2-(4-Morpholinyl)Pyridin-5-Yl]Ethenyl]-1-(4-Ethylpiperazin-1-Yl)Isoquinoline Hydrochloride], the figures for the Ki at serotonin 1A receptor and at serotonin 2 receptor were 0.0773 µM and 0.00733 µM, respectively.

As to `CCN1CCN(c2nc(-c3ccc(C(O)c4nccs4)cc3)cc3ccccc23)CC1` (centres unmarked) [Example 412, 1-(4-ethylpiperazin-1-yl)-3-[4-(1,3-thiazol-2-yl)hydroxymethylphenyl]isoquinoline], the Ki on serotonin 1A receptor was 0.0191 µM; on serotonin 2 receptor, 0.0414 µM.

Consider `CCN1CCN(c2nc(-c3ccc(S(=O)(=O)N(CC)CC)cc3)cc3ccccc23)CC1` [Example 359, 1-(4-ethylpiperazin-1-yl)-3-[4-(N,N-diethylsulfamoyl)phenyl]isoquinoline dihydrochloride], for which the values for the Ki on serotonin 1A receptor and on serotonin 2 receptor were 0.0061 µM and 0.0032 µM, respectively.

On to `CCN1CCN(c2nc(-c3ccc4c(c3)OCO4)cc3ccccc23)CC1` [Example 46, 3-(3,4-Methylenedioxyphenyl)-1-(4-Ethylpiperazin-1-Yl)Isoquinoline Hydrochloride], for which the Ki on serotonin 1A receptor amounted to 0.058 µM; on serotonin 2 receptor, 0.0127 µM.

With `CCN1CCN(c2nc(-c3cc(F)c(OCCOC)c(F)c3)cc3ccccc23)CC1` [Example 368, 1-(4-ethylpiperazin-1-yl)-3-(3,5-difluoro-4-methoxyethoxyphenyl)isoquinoline dihydrochloride], the figures for the Ki on serotonin 1A receptor and at serotonin 2 receptor were 0.032 µM and 0.0091 µM, respectively.

`CCN1CCN(c2nc(-c3ccc(OCCCNC(C)=O)cc3)cc3ccccc23)CC1` [Example 50, 3-[4-(3-Acetamidepropoxy)Phenyl]-1-(4-Ethylpiperazin-1-Yl)Isoquinoline Hydrochloride]: the Ki was determined as 0.0252 µM on serotonin 1A receptor and 0.0219 µM on serotonin 2 receptor.

For `CCN1CCN(c2nc(C#CC(O)c3ccccc3)cc3ccccc23)CC1` (centres unmarked) [Example 310, 1-(1-ethylpiperazin-4-yl)-3-(3-phenyl-3-hydroxy-1-propynyl)isoquinoline hydrochloride], the Ki is 0.0044 µM on serotonin 1A receptor and 0.0102 µM on serotonin 2 receptor.

In the case of `CCN1CCN(c2nc(Cc3ccccc3)cc3ccccc23)CC1` [Example 419, 1-(4-ethylpiperazin-1-yl)-3-benzylisoquinoline], the Ki worked out at 0.0948 µM on serotonin 1A receptor and 0.0164 µM at serotonin 2 receptor.

`CCC(=O)NCc1ccc(-c2cc3ccccc3c(N3CCN(CC)CC3)n2)cc1` [Example 85, 3-(4-Ethylcarbonylaminomethylphenyl)-1-(4-ethylpiperazin-1-yl)isoquinoline Hydrochloride]: the Ki at serotonin 1A receptor stood at 0.0187 µM; at serotonin 2 receptor, 0.0097 µM.

In the case of `CCC(C)NS(=O)(=O)c1ccc(-c2cc3ccccc3c(N3CCN(CC)CC3)n2)cc1` (centres unmarked) [Example 360, 1-(4-ethylpiperazin-1-yl)-3-{4-[N-(1-methylpropyl)sulfamoyl]phenyl}isoquinoline dihydrochloride], the values for the Ki on serotonin 1A receptor and at serotonin 2 receptor were 0.002 µM and 0.0015 µM, respectively.

As for `CCN1CCN(c2nc(-c3ccc(CN4CCOCC4)cc3)cc3ccccc23)CC1` [Example 93, 3-(4-Morpholinylmethylphenyl)-1-(4-ethylpiperazin-1-yl)isoquinoline Hydrochloride], the values for the Ki at serotonin 1A receptor and on serotonin 2 receptor were 0.0108 µM and 0.0567 µM, respectively.

Consider `CCN1CCN(c2nc(-c3ccc(OCCO)c(C#N)c3)cc3ccccc23)CC1` [Example 417, 1-(4-ethylpiperazin-1-yl)-3-[3-cyano-4-(2-hydroxyethoxy)phenyl]isoquinoline], for which the values for the Ki on serotonin 1A receptor and on serotonin 2 receptor were 0.0134 µM and 0.0045 µM, respectively.

Regarding `CCN1CCN(c2nc(/C=C(\C)c3ccccc3)cc3ccccc23)CC1` [Example 196, 1-(1-Ethylpiperazin-4-Yl)-3-(Trans-2-Methyl-2-Phenylethen-1-Yl)Isoquinoline Oxalate], the Ki was 0.0667 µM at serotonin 1A receptor and 0.00644 µM at serotonin 2 receptor.

In the case of `CCN1CCN(c2nc(-c3ccc4c(c3)CCC4=O)cc3ccccc23)CC1` [Example 414, 1-(4-ethylpiperazin-1-yl)-3-(1-indanon-5-yl)isoquinoline], the Ki on serotonin 1A receptor was determined as 0.0173 µM; at serotonin 2 receptor, 0.0042 µM.

Take `CN1CCN(c2nc(-c3ccc(OCCO)cc3)cc3ccsc23)CC1` [Example 253, 5-[4-(2-hydroxyethoxy)phenyl]-7-(4-methylpiperazin-1-yl)thieno[2,3-c]pyridine Hydrochloride]: the Ki came out at 0.0754 µM at serotonin 1A receptor and 0.00598 µM on serotonin 2 receptor.

On to `CCN1CCN(c2nc(-c3ccc(OCCOC)c(F)c3)cc3ccccc23)CC1` [Example 367, 1-(4-ethylpiperazin-1-yl)-3-(3-fluoro-4-methoxyethoxyphenyl)isoquinoline dihydrochloride], for which the results for the Ki on serotonin 1A receptor and at serotonin 2 receptor were 0.0552 µM and 0.0033 µM, respectively.

For `CCN1CCN(c2nc(-c3ccc4c(c3)CC(CO)CO4)cc3ccccc23)CC1` (centres unmarked) [Example 122, 3-(3-Hydroxymethylchroman-6-yl)-1-(4-Ethylpiperazin-1-yl)Isoquinoline Hydrochloride], the Ki at serotonin 1A receptor stood at 0.0401 µM; on serotonin 2 receptor, 0.0199 µM.

For the compound `CCN1CCN(c2nc(-c3ccc(C4CCOCC4)cc3)cc3ccccc23)CC1` [Example 83, 3-[4-(Tetrahydropyran-4-yl)phenyl]-1-(4-ethylpiperazin-1-yl)isoquinoline Hydrochloride], the Ki on serotonin 1A receptor amounted to 0.0756 µM; at serotonin 2 receptor, 0.0043 µM.

Source of the values: patent US6875761B2 (Eisai Co., Ltd., priority 1997, dated 2005).
